BindingDB's records for doi:10.1021/jm00001a010 (University of Massachusetts Medical School, 1995)

Target: Thymidine kinase (Herpes simplex virus type 1)
Experiment: Binding affinity towards HSV-1 thymidine kinase was determined

Ki: 2060 nM
Structure (SMILES): Nc1nc2c(ncn2CCCCO)c(=O)[nH]1 [2-amino-9-(4-hydroxybutyl)-6,9-dihydro-3H-purin-6-one]
